Like-named read-outs stand apart in the source and are kept apart here.
Experiments:
p53 [1] = experiment: Inhibition of P53 activation by L-ascorbic acid; type: cell-based, human; conditions: ER stress induced by cabozantinib and CBD; FIG. 11
Description: (§1) Next, the effect of L-ascorbic acid (LAA), known to alleviate ER stress, on the inhibition of P53 activation and apoptosis was investigated. As a result, it was confirmed that p53 activation and apoptosis caused by ER stress induced by combined treatment with cabozantinib and CBD were suppressed when LAA was treated (FIG. 11).

HepG2 cells [2] = experiment: Inhibition of apoptosis by L-ascorbic acid; type: cell-based, human; conditions: ER stress induced by cabozantinib and CBD; FIG. 11
Description: as §1

HepG2 cells [3] = experiment: Combined treatment effect of cabozantinib with cannabis-related compounds (cell viability); type: cell-based; conditions: Homo sapiens, read-out: IC50 with Cabozantinib
Description: (§2) Cells (1.0×10^4) were seeded in 96-well plates and cultured in a medium for 24 hours. The cultured cells were treated with various concentrations of CBD and/or cabozantinib, etc., for 48 hours, and then cell viability was measured using a WST-8 assay kit (Biomax, SEOUL, Korea).
(§3) Specifically, HepG2 cells, a hepatoma cell line, were seeded at a concentration of 1×10^4 cells/well in a 96-well plate and cultured for 24 hours in an incubator at 37° C. and 10% CO2, then they were treated with cabozantinib at various concentrations and treated or not with cannabidiol (20 μM), and then cultured under the same conditions for 48 hours. After completion of the culture, 1/10 of the WST-8 solution (Quanti-Max™, BIOMAX, Korea) was added to the medium, and the culture was further conducted at 37° C. for 1 hour, the absorbance was measured at 450 nm to determine the cell viability, which was expressed as a ratio to the untreated control group. This experiment was conducted independently and repeated three times. Additionally, as positive control groups, sorafenib, lenvatinib, or regorafenib were treated instead of cabozantinib, respectively.

tyrosine kinase c-Met = conditions: known; cited from earlier work
pCDH-CNR1 HepG2 cells = experiment: Cell viability in CNR1 overexpressing HepG2 cells with or without CBD; type: cell-based; conditions: Homo sapiens
Description: as §2
(§4) Total RNA was extracted from normal liver tissues and cDNA was synthesized to clone a tagged CNR1 and CNR2 coding gene sequences into a pCDH-CMV-EF1-puro vector. The CNR1 and CNR2 genes were amplified by PCR using specific primers including 5′-extension and NotI (NEB, Ipswich, MA, USA) and XbaI (NEB) restriction sites. CloneAmp HiFi PCR Premix ([…], San Jose, CA, USA) was used for PCR reactions. Subsequently, amplicons were obtained from the PCR products by gel extraction, digested with NotI and XbaI enzymes, and cloned into the pCDH-CMV-EF1-puro vector using the In-Fusion® cloning system according to the manufacturer's instructions.
(§5) HepG2 cells were transfected with pCDH-CMV-EF1-puro including the tagged CNR1 and CNR2 coding sequences together with gag-pol and VSV-G plasmids (plasmids 14887 and 8454, respectively; Addgene, Cambridge, MA, USA). […] To confirm the specificity and efficiency of CNR1 and CNR2 overexpression, mRNA expression levels were analyzed using RT-PCR. […]

HepG2 cells [4] = experiment: Cell viability (WST-8) of anticancer agents with or without CBD; type: cell-based, human; conditions: for IC50: Homo sapiens, HepG2, 48 h
Description: Human HCC cell lines (HepG2 and Hep3B) were purchased from the American Type Culture Collection (ATCC). The cell lines were cultured in MEM (Gibco, Carlsbad, MD, USA) and DMEM (Gibco) supplemented with 10% FBS (Gibco), 100 U/mL penicillin, and 100 µg/mL streptomycin, respectively.
as §2, §3

VEGFR2 = conditions: known; cited from earlier work
pCDH-CNR2 HepG2 cells = experiment: Cell viability in CNR2 overexpressing HepG2 cells with or without CBD; type: cell-based; conditions: Homo sapiens
Description: as §2, §4, §5

pCDH-Ctrl HepG2 cells = experiment: Cell viability in control vector (pCDH-Ctrl) HepG2 cells with or without CBD; type: cell-based; conditions: Homo sapiens
Description: as §2, §4, §5

apoptotic proteins = experiment: Levels of apoptotic proteins in presence of Chk2 inhibitor; type: cell-based, human; conditions: with cabozantinib and CBD; FIG. 7B
Excerpt: (§6) Next, to determine whether Chk2 activated by combined treatment with cabozantinib and CBD affects apoptosis, the anti-apoptotic effect mediated by Chk2 inhibitors was confirmed.

HepG2 cells [5] = experiment: Apoptotic effect of combined treatment in presence of Chk2 inhibitor; type: cell-based, human; conditions: with cabozantinib and CBD; FIG. 7A
Excerpt: as §6

p53 [6] = experiment: Phosphorylation of p53 in presence of Chk2 inhibitor; type: cell-based, human; conditions: with cabozantinib and CBD; FIG. 7B
Excerpt: as §6

[7] = HepG2, 48 h, combined with cabozantinib
[8] = HepG2, read-out: IC50 without CBD
[9] = with 20 μM CBD, read-out: IC50 with CBD
[10] = without CBD, read-out: IC50 without CBD

## O=C1O[C@H]([C@@H](O)CO)C(O)=C1O [LAA, L-ascorbic acid]
p53 [1]
  effect on p53 activation caused by ER stress: suppressed
HepG2 cells [2]
  effect on apoptosis caused by ER stress: suppressed

## CCCCCc1cc(O)c2c(c1)OC(C)(C)[C@@H]1CCC(C)=C[C@@H]21 [THC, tetrahydrocannabinol]
HepG2 cells [3]; HepG2, 48 h
  IC50: 23.9 ± 0.55 µM

## CCCCCc1cc2c(c(O)c1C(=O)O)[C@@H]1C=C(C)CC[C@H]1C(C)(C)O2 [THCA]
HepG2 cells [3]; [7]
  IC50: 30.4 ± 0.85 µM

## COc1cc2nccc(Oc3ccc(NC(=O)C4(C(=O)Nc5ccc(F)cc5)CC4)cc3)c2cc1OC [Cabozantinib]
Tyrosine kinase c-Met
  inhibition of tyrosine kinase c-Met: inhibit tyrosine kinase c-Met and VEGFR2
pCDH-CNR1 HepG2 cells; HepG2, read-out: IC50 with CBD
  IC50: 20.2 µM
pCDH-CNR1 HepG2 cells; [8]
  IC50: > 100 µM
HepG2 cells [4]; [9]
  IC50: 15.8 µM
HepG2 cells [4]; [10]
  IC50: > 100 µM
HepG2 cells [4]; vs cabozantinib alone, 20 μM CBD, 48 h, FIG. 4A
  toxicity of cabozantinib against HepG2 cells when combine treated with cannabidiol: significantly increased
VEGFR2
  inhibition of VEGFR2: inhibit tyrosine kinase c-Met and VEGFR2
pCDH-CNR2 HepG2 cells; HepG2, read-out: IC50 with CBD
  IC50: 18.2 µM
pCDH-CNR2 HepG2 cells; [8]
  IC50: > 100 µM
pCDH-Ctrl HepG2 cells; HepG2, read-out: IC50 with CBD
  IC50: 16 µM
pCDH-Ctrl HepG2 cells; [8]
  IC50: > 100 µM

## NC(=O)c1ccc2nc(-c3ccc(Oc4ccc(Cl)cc4)cc3)[nH]c2c1 [BML-277]
Apoptotic proteins
  effect on levels of apoptotic proteins: reduced
HepG2 cells [5]
  effect on the apoptotic effect of combined treatment: inhibited the apoptotic effect
p53 [6]
  effect on phosphorylation of p53: reduced the phosphorylation of p53

## COc1cc2nccc(Oc3ccc(NC(=O)NC4CC4)c(Cl)c3)c2cc1C(N)=O [Lenvatinib]
HepG2 cells [4]; [9]
  IC50: > 100 µM
HepG2 cells [4]; [10]
  IC50: > 100 µM

## CNC(=O)c1cc(Oc2ccc(NC(=O)Nc3ccc(Cl)c(C(F)(F)F)c3)cc2)ccn1 [Sorafenib]
HepG2 cells [4]; [9]
  IC50: 9.24 µM
HepG2 cells [4]; [10]
  IC50: 14.6 µM

## CNC(=O)c1cc(Oc2ccc(NC(=O)Nc3ccc(Cl)c(C(F)(F)F)c3)c(F)c2)ccn1 [Regorafenib]
HepG2 cells [4]; [9]
  IC50: 9.74 µM
HepG2 cells [4]; [10]
  IC50: 14.1 µM

## C=C(C)[C@@H]1CCC(C)=C[C@H]1c1c(O)cc(CCCCC)c(C(=O)O)c1O [CBDA, cannabidiolic acid]
HepG2 cells [3]; [7]
  IC50: 35.9 ± 1.35 µM
